For 76 compounds, IC50 results are on record in ChEMBL document CHEMBL4304757, “Synthetic heterocyclic candidates as promising α-glucosidase inhibitors: An overview” (Eur J Med Chem, 2019).

SMILES strings stand for the structures.

Target in the first assay: not listed separately
In words: Inhibition of yeast alpha-glucosidase using p-nitrophenyl-alpha-d-glucopyranoside as substrate preincubated for 10 mins followed by substrate addition measured after 20 mins. Set-up: species or system Saccharomyces cerevisiae.
With `COc1ccc(C2C(C#N)=C(N)Oc3c2c(=O)[nH]c2c3ccc3ccccc32)cc1` (stereo unspecified), the IC50 (as a rule, the concentration at which inhibition is half-maximal) was 10 to 172 µM. `N#CC1=C(N)Oc2c(c(=O)[nH]c3c2ccc2ccccc23)C1c1ccc(O)cc1` (stereo unspecified) had an IC50 of 10 to 172 µM.

As to `CN(C)c1ccc(C2C(C#N)=C(N)Oc3c2c(=O)[nH]c2c3ccc3ccccc32)cc1` (stereo unspecified), the IC50 lay in the range of 10 to 172 µM.

In the case of `N#CC1=C(N)Oc2c(c(=O)[nH]c3c2ccc2ccccc23)C1c1cccc([N+](=O)[O-])c1` (stereo unspecified), the IC50 was in the range of 10 to 172 µM.

With `COc1cc(C2C(C#N)=C(N)Oc3c2c(=O)[nH]c2c3ccc3ccccc32)ccc1O` (stereo unspecified), the IC50 fell in the range of 10 to 172 µM. Same read-out and setting: for `N#CC1=C(N)Oc2c(c(=O)[nH]c3c2ccc2ccccc23)C1c1ccc(F)cc1` (stereo unspecified) the value was 15 µM. `N#CC1=C(N)Oc2c(c(=O)[nH]c3c2ccc2ccccc23)C1c1cccc(O)c1` (stereo unspecified) registered a half-maximal inhibitory concentration (IC50) of 10 to 172 µM.

`N#CC1=C(N)Oc2c(c(=O)[nH]c3c2ccc2ccccc23)C1c1ccccc1` (stereo unspecified) returned an IC50 of 10 to 172 µM. Regarding `N#CC1=C(N)Oc2c(c(=O)[nH]c3c2ccc2ccccc23)C1c1ccc([N+](=O)[O-])cc1` (stereo unspecified), the IC50 lay in the range of 10 to 172 µM.

With `COc1ccc(C2C(C#N)=C(N)Oc3c2c(=O)[nH]c2c3ccc3ccccc32)cc1OC` (stereo unspecified), the IC50 was 10 to 172 µM. On the same count and under the same terms, the value for `N#CC1=C(N)Oc2c(c(=O)[nH]c3c2ccc2ccccc23)C1c1ccccc1Br` (stereo unspecified) was 10 to 172 µM. On the same count and under the same terms, the value for `N#CC1=C(N)Oc2c(c(=O)[nH]c3c2ccc2ccccc23)C1c1ccc(Br)cc1` (stereo unspecified) was 10 to 172 µM.

As for `N#CC1=C(N)Oc2c(c(=O)[nH]c3c2ccc2ccccc23)C1c1cccc(F)c1` (stereo unspecified), the IC50 was 10 to 172 µM.

The compound `Cc1ccsc1C1C(C#N)=C(N)Oc2c1c(=O)[nH]c1c2ccc2ccccc21` (stereo unspecified) registered an IC50 of 10 to 172 µM. Same read-out and setting: the value for `N#CC1=C(N)Oc2c(c(=O)[nH]c3c2ccc2ccccc23)C1c1ccc(Cl)cc1` (stereo unspecified) was 10 µM; that for `Cc1ccc(C2C(C#N)=C(N)Oc3c2c(=O)[nH]c2c3ccc3ccccc32)cc1` (stereo unspecified) was 10 to 172 µM; that for `N#CC1=C(N)Oc2c(c(=O)[nH]c3c2ccc2ccccc23)C1c1ccncc1` (stereo unspecified) was 10 to 172 µM.

For the next assay, the target named is T1, Alpha glucosidase (Homo sapiens, UniProt O43451+P10253+P14410+Q2M2H8). Description: Inhibition of alpha-glucosidase (unknown origin) using pNPG as substrate preincubated for 10 mins followed by substrate addition measured after 30 mins. The assay is classed as protein assay.
With `O=C(N/N=C/c1ccc(O)cc1)c1cc2ccccc2[nH]1`, the IC50 lay in the range of 2.3 to 226 µM. Turning to `FC(F)(F)c1ccc(-c2[nH]c3ccccc3c2-c2nc(-c3ccccc3)c(-c3ccccc3)n2-c2ccccc2)cc1`, the IC50 was in the range of 8.3 to 98 µM. The same measure, in the same setting: for `O=C(N/N=C/c1cccc(O)c1O)c1cc2ccccc2[nH]1` the value was 2.3 to 226 µM; for `CC(=O)Nc1ccc(-n2c(-c3c(-c4ccccc4)[nH]c4ccc(F)cc34)nc(-c3ccccc3)c2-c2ccccc2)cc1`, 8.3 µM. On the same count and under the same terms, the value for `COc1ccc(-n2c(-c3c(-c4cccc(Br)c4)[nH]c4ccccc34)nc(-c3ccccc3)c2-c2ccccc2)cc1` was 8.3 to 98 µM; that for `O=C(N/N=C/c1cc(O)cc(O)c1)c1cc2ccccc2[nH]1` was 2.3 to 226 µM.

Turning to `Clc1cccc(-c2[nH]c3ccccc3c2-c2nc(-c3ccccc3)c(-c3ccccc3)n2-c2ccccc2)c1`, the IC50 fell in the range of 8.3 to 98 µM.

Turning to `COc1cc(/C=N/NC(=O)c2cc3ccccc3[nH]2)ccc1O`, the IC50 is 2.3 to 226 µM. On the same count and under the same terms, for `O=C(N/N=C/c1cc(O)c(O)c(O)c1)c1cc2ccccc2[nH]1` the value was 2.3 µM; for `Fc1ccc2[nH]c(-c3ccccc3)c(-c3nc(-c4ccccc4)c(-c4ccccc4)n3-c3ccccc3)c2c1`, 8.3 to 98 µM; for `COc1ccc(/C=N/NC(=O)c2cc3ccccc3[nH]2)c(I)c1O`, 2.3 to 226 µM. The same measure, in the same setting: for `Brc1ccc(-n2c(-c3c(-c4cccc(Br)c4)[nH]c4ccccc34)nc(-c3ccccc3)c2-c2ccccc2)cc1` the value was 8.3 to 98 µM; for `O=C(N/N=C/c1ccc(Cl)cc1)c1cc2ccccc2[nH]1`, 2.3 to 226 µM. The same measure, in the same setting: the value for `Fc1ccc2[nH]c(-c3ccccc3)c(-c3nc(-c4ccccc4)c(-c4ccccc4)n3-c3cccc(Cl)c3)c2c1` was 8.3 to 98 µM; that for `COc1ccc(/C=N/NC(=O)c2cc3ccccc3[nH]2)cc1O` was 2.3 to 226 µM; that for `O=C(N/N=C/c1cc(O)ccc1O)c1cc2ccccc2[nH]1` was 2.3 to 226 µM. `COc1ccc(O)c(/C=N/NC(=O)c2cc3ccccc3[nH]2)c1` had an IC50 of 2.3 to 226 µM. In the case of `O=C(N/N=C/c1ccc(Br)c(F)c1)c1cc2ccccc2[nH]1`, the IC50 is 2.3 to 226 µM. Same read-out and setting: for `O=C(N/N=C/c1c(O)cc(O)cc1O)c1cc2ccccc2[nH]1` the value was 2.3 to 226 µM; for `O=C(N/N=C/c1ccc(O)c(O)c1)c1cc2ccccc2[nH]1`, 2.3 to 226 µM. Still for that read-out and setting: the value for `O=C(N/N=C/c1ccccc1O)c1cc2ccccc2[nH]1` was 2.3 to 226 µM; that for `COc1ccc(-n2c(-c3c(-c4ccc(Cl)cc4)[nH]c4ccc(Cl)cc34)nc(-c3ccccc3)c2-c2ccccc2)cc1` was 8.3 to 98 µM.

In the next assay the target is T1, Alpha glucosidase. In words: Inhibition of alpha-glucosidase (unknown origin) using p-nitrophenyl-alpha-d-glucopyranoside as substrate preincubated for 5 mins followed by substrate addition measured after 30 mins. The assay is classed as protein assay.
`Cc1cs/c(=N\C(=O)c2ccccc2Cl)n1-c1cc(Cl)c(Cl)cc1Cl`: the IC50 lay in the range of 0.1 to 0.15 µM.

`COc1ccc(C(=O)/N=c2\scc(C)n2-c2cc(Cl)c(Cl)cc2Cl)cc1` came in with an IC50 of 0.1 to 0.15 µM. On the same count and under the same terms, for `Cc1cccc(C(=O)/N=c2\scc(C)n2-c2cc(Cl)c(Cl)cc2Cl)c1` the value was 0.1 to 0.15 µM. The same measure, in the same setting: for `Cc1cs/c(=N\C(=O)c2ccco2)n1-c1cc(Cl)c(Cl)cc1Cl` the value was 0.1 to 0.15 µM. On the same count and under the same terms, for `Cc1cs/c(=N\C(=O)c2cc3ccccc3oc2=O)n1-c1cc(Cl)c(Cl)cc1Cl` the value was 0.1 to 0.15 µM.

A further assay deals with T1, Alpha glucosidase. In words: Inhibition of alpha-glucosidase (unknown origin) using p-nitrophenyl-alpha-d-glucopyranoside as substrate preincubated for 10 mins followed by substrate addition measured after 30 mins. In kind it is protein assay.
With `CCOC(=O)C1=C(Nc2cccc([N+](=O)[O-])c2)C[C@@H](c2ccc(C)cc2)N(c2cccc([N+](=O)[O-])c2)[C@@H]1c1ccc(C)cc1`, the IC50 was in the range of 2.3 to 29 µM.

`O=C(NNC(=S)Nc1ccc(Br)cc1)c1ccc(-c2nnc(-c3ccccc3Cl)o2)cc1`: the IC50 was 0.4 to 38 µM. On the same count and under the same terms, for `COc1ccc(NC(=S)NNC(=O)c2ccc(-c3nnc(-c4ccccc4Cl)o3)cc2)cc1` the value was 0.4 to 38 µM; for `O=C(NNC(=S)Nc1ccc(Cl)c(Cl)c1)c1ccc(-c2nnc(-c3ccccc3Cl)o2)cc1`, 0.4 to 38 µM.

Compound `O=C(NNC(=S)Nc1ccc(C(F)(F)F)cc1)c1ccc(-c2nnc(-c3ccccc3Cl)o2)cc1` registered an IC50 of 0.6 µM. In other words, the sub-micromolar range. On the same count and under the same terms, for `COc1cccc(NC(=S)NNC(=O)c2ccc(-c3nnc(-c4ccccc4Cl)o3)cc2)c1` the value was 0.4 to 38 µM. Same read-out and setting: for `Cc1cccc(NC(=S)NNC(=O)c2ccc(-c3nnc(-c4ccccc4Cl)o3)cc2)c1` the value was 0.4 to 38 µM; for `O=C(NNC(=S)Nc1cccc(F)c1)c1ccc(-c2nnc(-c3ccccc3Cl)o2)cc1`, 0.4 to 38 µM; for `CCOC(=O)C1=C(Nc2cccc(Cl)c2)C[C@@H](c2ccc(Cl)cc2)N(c2cccc(Cl)c2)[C@@H]1c1ccc(Cl)cc1`, 2.3 to 29 µM. The same measure, in the same setting: the value for `O=C(NNC(=S)Nc1ccc(Cl)cc1)c1ccc(-c2nnc(-c3ccccc3Cl)o2)cc1` was 0.4 to 38 µM; that for `CCOC(=O)C1=C(Nc2cccc(Br)c2)C[C@@H](c2ccc(Cl)cc2)N(c2cccc(Br)c2)[C@@H]1c1ccc(Cl)cc1` was 2.3 µM; that for `O=C(NNC(=S)Nc1ccccc1Br)c1ccc(-c2nnc(-c3ccccc3Cl)o2)cc1` was 0.4 to 38 µM. The compound `O=C(NNC(=S)Nc1ccccc1F)c1ccc(-c2nnc(-c3ccccc3Cl)o2)cc1` displayed an IC50 of 0.4 µM.

The compound `CCOC(=O)C1=C(Nc2cccc(F)c2)C[C@@H](c2ccc(Cl)cc2)N(c2cccc(F)c2)[C@@H]1c1ccc(Cl)cc1` yielded an IC50 of 2.3 to 29 µM. Compound `O=C(NNC(=S)Nc1ccc([N+](=O)[O-])cc1)c1ccc(-c2nnc(-c3ccccc3Cl)o2)cc1` gave an IC50 of 0.4 to 38 µM.

As for `Cc1ccc(NC(=S)NNC(=O)c2ccc(-c3nnc(-c4ccccc4Cl)o3)cc2)cc1`, the IC50 is 0.4 to 38 µM. Same read-out and setting: for `O=C(NNC(=S)Nc1ccccc1Cl)c1ccc(-c2nnc(-c3ccccc3Cl)o2)cc1` the value was 0.7 µM; for `COc1ccccc1NC(=S)NNC(=O)c1ccc(-c2nnc(-c3ccccc3Cl)o2)cc1`, 0.4 to 38 µM. Still for that read-out and setting: for `O=C(NNC(=S)Nc1ccc(F)cc1)c1ccc(-c2nnc(-c3ccccc3Cl)o2)cc1` the value was 0.4 to 38 µM; for `O=C(NNC(=S)Nc1cccc([N+](=O)[O-])c1)c1ccc(-c2nnc(-c3ccccc3Cl)o2)cc1`, 0.4 to 38 µM.

Another assay addresses T1, Alpha glucosidase. Description: Inhibition of alpha-glucosidase (unknown origin) using p-nitro phenyl glucopyranoside as substrate preincubated for 5 mins followed by substrate addition measured after 30 mins. The assay is classed as protein assay.
Turning to `O=c1cc(-c2nn(C(Nc3ccc(NC(c4ccc([N+](=O)[O-])cc4)n4nc(-c5cc6ccccc6oc5=O)oc4=S)cc3)c3ccc([N+](=O)[O-])cc3)c(=S)o2)c2ccccc2o1` (stereo unspecified), the IC50 is 0.07 to 0.76 µM. The same measure, in the same setting: for `O=c1oc2ccccc2cc1-c1nn(C(Nc2ccc(Oc3ccc(NC(c4ccc(Cl)cc4)n4nc(-c5cc6ccccc6oc5=O)oc4=S)cc3)cc2)c2ccc(Cl)cc2)c(=S)o1` (stereo unspecified) the value was 0.07 to 0.76 µM; for `CN(C)c1ccc(C(Nc2ccc(NC(c3ccc(N(C)C)cc3)n3nc(-c4cc(=O)oc5ccccc45)oc3=S)cc2)n2nc(-c3cc4ccccc4oc3=O)oc2=S)cc1` (stereo unspecified), 0.07 to 0.76 µM.

Compound `O=c1cc(-c2nn(C(Nc3ccc(-c4ccc(NC(c5cccc(Cl)c5)n5nc(-c6cc7ccccc7oc6=O)oc5=S)cc4)cc3)c3cccc(Cl)c3)c(=S)o2)c2ccccc2o1` (stereo unspecified) returned an IC50 of 0.07 to 0.76 µM. `Cc1ccc(C(Nc2ccc(NC(c3ccc(C)cc3)n3nc(-c4cc(=O)oc5ccccc45)oc3=S)cc2)n2nc(-c3cc4ccccc4oc3=O)oc2=S)cc1` (stereo unspecified) yielded an IC50 of 0.07 to 0.76 µM. On the same count and under the same terms, for `CN(C)c1ccc(C(Nc2ccc(Oc3ccc(NC(c4ccc(N(C)C)cc4)n4nc(-c5cc6ccccc6oc5=O)oc4=S)cc3)cc2)n2nc(-c3cc4ccccc4oc3=O)oc2=S)cc1` (stereo unspecified) the value was 0.07 to 0.76 µM.

Target in another assay: not listed separately
Description: Inhibition of yeast alpha-glucosidase using p-nitrophenyl-alpha-d-glucopyranoside as substrate preincubated for 5 mins followed by substrate addition measured after 5 mins. Set-up: species or system Saccharomyces cerevisiae.
Take `O=[N+]([O-])c1ccc2cc(-c3nnc(-c4cccc(O)c4)o3)oc2c1`: the IC50 is 12 to 162 µM.

The compound `O=[N+]([O-])c1ccc2cc(-c3nnc(-c4ccc(O)cc4O)o3)oc2c1` registered an IC50 of 12 to 162 µM. On the same count and under the same terms, for `O=[N+]([O-])c1ccc2cc(-c3nnc(-c4cc(O)cc(O)c4)o3)oc2c1` the value was 12 to 162 µM; for `O=[N+]([O-])c1ccc2cc(-c3nnc(-c4cccc(Cl)c4)o3)oc2c1`, 12 to 162 µM; for `O=[N+]([O-])c1ccc2cc(-c3nnc(-c4ccccc4Cl)o3)oc2c1`, 12 to 162 µM. The same measure, in the same setting: for `O=[N+]([O-])c1ccc2cc(-c3nnc(-c4ccc(F)cc4)o3)oc2c1` the value was 12 to 162 µM.
